The values below come from patent US20120027857A1, “CONTROLLED RELEASE PHARMACEUTICAL CO[…]-[…]-VENLAFAXINE” (LEK PHARMACEUTICALS D.D., priority 2008, published 2012).

Data set [1] can be described thus: Dissolution test, USP apparatus 1, 900 ml water with 0.9% NaCl, 150 rpm, 37°C, HPLC. The conditions noted are these: compared to O-desmethyl-venlafaxine succinate from the tablet having the same composition. It is filed as physicochemical. As for the experimental part:
Dissolution properties were evaluated by in vivo relevant dissolution test. USP apparatus 1 was used for testing. 900 ml of water with 0.9% NaCl is placed in the dissolution vessel, mixed with a paddle at 150 rpm and kept at 37±0.5° C. Samples were taken from the dissolution vessel at regular time intervals and the concentrations of O-desmethyl-venlafaxine were analyzed by HPLC.
Pharmaceutical compositions might be optionally placed for 60 minutes in 900 ml 0.01 M HCl before being placed in 900 ml water with 0.9% NaCl.

A short description of the next data set: pH of 1% water solution. It counts as physicochemical.

Take `CN(C)CC(c1ccc(O)cc1)C1(O)CCCCC1.O=C(O)c1cc(=O)[nH]c(=O)[nH]1` (stereo not drawn) [O-desmethyl-venlafaxine orotate]: the “dissolution of salt from matrix tablet” value in data set [1] is given as “much faster”. In addition, the “pH (1% water solution)” value in the data set “pH of 1% water solution” is reported as 3.3. Take `CN(C)CC(c1ccc(O)cc1)C1(O)CCCCC1.O=C[C@H](O)[C@@H](O)[C@H](O)[C@H](O)C(=O)O` (stereo not drawn) [O-desmethyl-venlafaxine glucuronate]: the “pH (1% water solution)” value in “pH of 1% water solution” is 6.14.
